Measured values from PMC3353862.
In brackets after ≈: the same amount, converted by molar mass.

The molecules below were run on bacterial protein synthesis (aminoacylation/translation system) (assay: aminoacylation/translation (A/T) assay). Settings: A/T assay, Table 1; read-out: IC50.
Assay type: biochemical
For `Oc1nc(-c2cccnc2)nc2c1CN(Cc1cccc(F)c1)CC2` [Compound 321376], the IC50 was > 300000 nM.
With `Oc1nc(-c2ccncc2)nc2c1CN(Cc1cccc(F)c1)CC2` [Compound 321386] the IC50 was > 300000 nM.
In the case of `COc1cccc(CN2CCc3nc(-c4ccncc4)nc(O)c3C2)c1` [Compound 321388], the IC50 is reported as > 300000 nM.
`Oc1nc(-c2ccccn2)nc2c1CN(Cc1ccc(F)cc1)CC2` [Compound 321521] showed an IC50 of 2400 nM.
`Oc1ccccc1CN1CCc2nc(-c3ccccn3)nc(O)c2C1` [Compound 321522] showed an IC50 of 2600 nM.
For `Oc1nc(-c2ccccn2)nc2c1CN(Cc1ccccc1)CC2` [Compound 321524], the IC50 was 2000 nM.

Each molecule was assayed on S. aureus (assay: Broth microdilution MIC testing). Settings: Staphylococcus aureus, read-out: MIC S. aureus.
Assay type: cell-based, Staphylococcus aureus
For `Oc1nc(-c2cccnc2)nc2c1CN(Cc1cccc(F)c1)CC2` [Compound 321376], the MIC was > 128 µg/mL.
With `Oc1nc(-c2ccncc2)nc2c1CN(Cc1cccc(F)c1)CC2` [Compound 321386] the MIC was > 128 µg/mL.
With `COc1cccc(CN2CCc3nc(-c4ccncc4)nc(O)c3C2)c1` [Compound 321388] the MIC was > 128 µg/mL.
`Oc1nc(-c2ccccn2)nc2c1CN(Cc1ccc(F)cc1)CC2` [Compound 321521] showed an MIC of 128 µg/mL (≈ 381 µM).
`Oc1ccccc1CN1CCc2nc(-c3ccccn3)nc(O)c2C1` [Compound 321522] showed an MIC of 128 µg/mL (≈ 383 µM).
Work on `Oc1nc(-c2ccccn2)nc2c1CN(Cc1ccccc1)CC2` [Compound 321524] yielded an MIC of 128 µg/mL (≈ 402 µM).

What follows are molecules tested on S. pneumoniae (assay: Broth microdilution MIC testing). Settings: Streptococcus pneumoniae, read-out: MIC S. pneumo.
Assay type: cell-based, Streptococcus pneumoniae
For `Oc1nc(-c2ccncc2)nc2c1CN(Cc1cccc(F)c1)CC2` [Compound 321386], the MIC was > 128 µg/mL.
For `COc1cccc(CN2CCc3nc(-c4ccncc4)nc(O)c3C2)c1` [Compound 321388], the MIC was > 128 µg/mL.
Work on `Oc1nc(-c2ccccn2)nc2c1CN(Cc1ccc(F)cc1)CC2` [Compound 321521] yielded an MIC of 16 µg/mL (≈ 47.6 µM).
For `Oc1ccccc1CN1CCc2nc(-c3ccccn3)nc(O)c2C1` [Compound 321522], the MIC was 16 µg/mL (≈ 47.8 µM).
In the case of `Oc1nc(-c2ccccn2)nc2c1CN(Cc1ccccc1)CC2` [Compound 321524], the MIC is reported as 16 µg/mL (≈ 50.3 µM).

The molecules below were run on E. coli tolC mutants (assay: Broth microdilution MIC testing). Settings: Escherichia coli, read-out: MIC E. coli tolC.
Assay type: cell-based, Escherichia coli
In the case of `Oc1nc(-c2cccnc2)nc2c1CN(Cc1cccc(F)c1)CC2` [Compound 321376], the MIC is reported as > 128 µg/mL.
In the case of `Oc1nc(-c2ccncc2)nc2c1CN(Cc1cccc(F)c1)CC2` [Compound 321386], the MIC is reported as > 128 µg/mL.
For `COc1cccc(CN2CCc3nc(-c4ccncc4)nc(O)c3C2)c1` [Compound 321388], the MIC was > 128 µg/mL.
Molecule `Oc1nc(-c2ccccn2)nc2c1CN(Cc1ccc(F)cc1)CC2` [Compound 321521] has an MIC of 16 µg/mL (≈ 47.6 µM).
Molecule `Oc1ccccc1CN1CCc2nc(-c3ccccn3)nc(O)c2C1` [Compound 321522] has an MIC of 32 µg/mL (≈ 95.7 µM).
With `Oc1nc(-c2ccccn2)nc2c1CN(Cc1ccccc1)CC2` [Compound 321524] the MIC was 16 µg/mL (≈ 50.3 µM).

Each molecule was assayed on M. catarrhalis (assay: Broth microdilution MIC testing). Settings: Moraxella catarrhalis.
Assay type: cell-based, Moraxella catarrhalis
In the case of `Oc1nc(-c2ccncc2)nc2c1CN(Cc1cccc(F)c1)CC2` [Compound 321386], the MIC is reported as > 128 µg/mL.
`COc1cccc(CN2CCc3nc(-c4ccncc4)nc(O)c3C2)c1` [Compound 321388] was tested, and the MIC was > 128 µg/mL.
`Oc1nc(-c2ccccn2)nc2c1CN(Cc1ccc(F)cc1)CC2` [Compound 321521] gave an MIC of 0.5 µg/mL (≈ 1.49 µM).
For `Oc1ccccc1CN1CCc2nc(-c3ccccn3)nc(O)c2C1` [Compound 321522], the MIC was 1 µg/mL (≈ 2.99 µM).
`Oc1nc(-c2ccccn2)nc2c1CN(Cc1ccccc1)CC2` [Compound 321524] showed an MIC of 1 µg/mL (≈ 3.14 µM).

The molecules below were run on H. influenzae (assay: Broth microdilution MIC testing). Settings: Haemophilus influenzae, read-out: MIC H. flu.
Assay type: cell-based, Haemophilus influenzae
With `Oc1nc(-c2ccncc2)nc2c1CN(Cc1cccc(F)c1)CC2` [Compound 321386] the MIC was > 128 µg/mL.
With `COc1cccc(CN2CCc3nc(-c4ccncc4)nc(O)c3C2)c1` [Compound 321388] the MIC was > 128 µg/mL.
`Oc1nc(-c2ccccn2)nc2c1CN(Cc1ccc(F)cc1)CC2` [Compound 321521] gave an MIC of 4 µg/mL (≈ 11.9 µM).
In the case of `Oc1ccccc1CN1CCc2nc(-c3ccccn3)nc(O)c2C1` [Compound 321522], the MIC is reported as 2 µg/mL (≈ 5.98 µM).
`Oc1nc(-c2ccccn2)nc2c1CN(Cc1ccccc1)CC2` [Compound 321524] was tested, and the MIC was 4 µg/mL (≈ 12.6 µM).

The molecules below were run on E. coli modified with PMBN (assay: Broth microdilution MIC testing). Settings: Escherichia coli, read-out: MIC E. coli +PMBP.
Assay type: cell-based, Escherichia coli
`Oc1nc(-c2ccncc2)nc2c1CN(Cc1cccc(F)c1)CC2` [Compound 321386] was tested, and the MIC was > 128 µg/mL.
For `COc1cccc(CN2CCc3nc(-c4ccncc4)nc(O)c3C2)c1` [Compound 321388], the MIC was > 128 µg/mL.
For `Oc1nc(-c2ccccn2)nc2c1CN(Cc1ccc(F)cc1)CC2` [Compound 321521], the MIC was 64 µg/mL (≈ 190 µM).
`Oc1ccccc1CN1CCc2nc(-c3ccccn3)nc(O)c2C1` [Compound 321522] was tested, and the MIC was 64 µg/mL (≈ 191 µM).
Molecule `Oc1nc(-c2ccccn2)nc2c1CN(Cc1ccccc1)CC2` [Compound 321524] has an MIC of 64 µg/mL (≈ 201 µM).

What follows are molecules tested on E. faecalis (assay: Broth microdilution MIC testing). Settings: Enterococcus faecalis, read-out: MIC E. fae.
Assay type: cell-based, Enterococcus faecalis
With `Oc1nc(-c2ccncc2)nc2c1CN(Cc1cccc(F)c1)CC2` [Compound 321386] the MIC was > 128 µg/mL.
With `COc1cccc(CN2CCc3nc(-c4ccncc4)nc(O)c3C2)c1` [Compound 321388] the MIC was > 128 µg/mL.
`Oc1nc(-c2ccccn2)nc2c1CN(Cc1ccc(F)cc1)CC2` [Compound 321521] was tested, and the MIC was 16 µg/mL (≈ 47.6 µM).
`Oc1ccccc1CN1CCc2nc(-c3ccccn3)nc(O)c2C1` [Compound 321522] showed an MIC of 16 µg/mL (≈ 47.8 µM).
`Oc1nc(-c2ccccn2)nc2c1CN(Cc1ccccc1)CC2` [Compound 321524] was tested, and the MIC was 16 µg/mL (≈ 50.3 µM).
